This note sets out measurements from patent US20230050846A1, “TREATMENT OF HEPATIC AND CARDIOVASCULAR DISORDERS” (LIFESEARCH, priority 2019, published 2023).

In series [1] the target is T1, human F1Fo-ATPase (Homo sapiens, UniProt P06576).
T1 construct: Human F1Fo-ATPase was purified from HepG2 cells by immunocapture; endogenous in cells; host or cells: HepG2 cells; complex isolated by immunocapture with anti-ATP synthase antibody 12F4AD8AF8 (#ab109867, Abcam)
Nature of the series: Surface plasmon resonance (SPR) binding to purified human F1Fo-ATPase. Particulars: SPR single-cycle kinetics; His-tag / biotin variant of peptide immobilized, F1Fo-ATPase as analyte; read-out: KD (affinity between F1Fo-ATPase and immobilized peptide). How it is done: Surface plasmon resonance (SPR) assays. Binding studies based on SPR technology were performed on a BIAcore T200 optical biosensor instrument (GE Healthcare®, Uppsala, Sweden). The peptide of formula (I) with C-terminal 6×His-tag (Formula (I)-His-tag: CH3CO-[SEQ ID NO: 1]-HHHHHH) and the peptide of formula (II) with C-terminal biotin (Formula (II)-Biotin: CH3CO-[SEQ ID NO: 1]-K-[palmitoyl]-AEEAc-K-[biotinyl]-NH2) were custom-synthesized by BACHEM AG (Bubendorf, Switzerland) with >90% purity in trifluoroacetate salt. Human F1Fo-ATPase was purified from HepG2 cells by immunocapture using mouse monoclonal anti-ATP synthase antibody (12F4AD8AF8, #ab109867, Abcam) according to manufacturer's instructions.
Immobilization of the peptide of formula (I)-6His-tag was performed on a nitrilotriacetic acid (NTA) sensorchip in HBS-P+ buffer (10 mM Hepes pH 7.4, 150 mM NaCl, and 0.05% surfactant P20) (GE Healthcare). To saturate the NTA surface with Ni2^+, flow cells (Fc) were loaded with 0.5 mM NiCl2 solution. The channel Fc1 was left empty and used as a reference surface for nonspecific binding measurements. Formula (I)-6×His was injected in the channel Fc2 at a flow-rate of 5 μL/min and stabilized by amine coupling (Laboratory guideline 29-0057-17 AB). The total amount of immobilized Formula (I)-His-tag was 300-350 resonance units (RU): final concentration 25 μg/mL. […]
(SPR reads the build-up and loss of mass on a sensor chip optically.)

Series [2] is described as follows: Stability in PBS (LC-HRMS). The series is classed as physicochemical. The note with it: 4° C. and 37° C., 4 weeks. How it is done:
Peptide of Formula (I) or peptide of Formula (II) were prepared at a concentration of 200 μg/mL in PBS or mixed with EDTA plasma or serum from human (Etablissement Frangais du Sang, EFS) or mouse (C57BL/6J, cardiac puncture). Aliquots from PBS samples (40 μL) were incubated at 4° C. or 37° C. for 0, 1, 2 and 4 weeks. Aliquots from plasma and serum samples (50 μL) were incubated at 4° C. or 37° C. for 0, 1, 2, 4, 6, 12, 24 h.
A mixed solution of peptides of formula (I) and (II) was constituted and serially diluted in PBS to obtain seven standard solutions, ranging from 200 μg/mL to 0.2 μg/mL. In parallel, a mixed solution of labelled peptides of Formula (I) and (II) (Thermo Scientific, Biopolymers Darmstadt, Germany) was prepared in PBS at 100 μg/mL. The mixed solution of labelled peptides (25 μL) was added to 25 μL of standard solutions as well as to PBS, plasma and serum samples. Acetonitrile (150 μL) was added to each sample to precipitate plasma/serum proteins. […] Peptides were analyzed according to their major exact m/z (i 5 ppm, Table 1) and each peptide signal was normalized with that of its labelled internal standard. Peptide concentrations were calculated using calibration curves plotted from standard solutions (linear regression, 1/x weighted, origin excluded).

Peptide text beside a SMILES is read from it. * marks the point of attachment. Palmitoyl = CCCCCCCCCCCCCCCC(=O)*

Turning to `CCCCCCCCCCCCCCCC(=O)NCCCC[C@H](NC(=O)[C@H](CCC(=O)O)NC(=O)[C@H](CCCNC(=N)N)NC(=O)[C@H](CO)NC(=O)[C@H](CCC(N)=O)NC(=O)[C@H](C)NC(=O)[C@H](CCCNC(=N)N)NC(=O)[C@H](Cc1ccccc1)NC(=O)[C@H](Cc1ccc(O)cc1)NC(=O)[C@H](CCCNC(=N)N)NC(=O)[C@H](CCC(=O)O)NC(=O)[C@H](CCC(=O)O)NC(=O)[C@H](CCC(=O)O)NC(=O)[C@H](C)NC(=O)[C@H](CCC(N)=O)NC(=O)[C@H](CCC(=O)O)NC(=O)[C@H](CCCNC(=N)N)NC(=O)[C@H](CCCCN)NC(=O)CNC(=O)[C@H](Cc1ccccc1)NC(=O)[C@H](C)NC(=O)CNC(=O)CNC(=O)[C@H](C)NC(=O)[C@H](CCC(=O)O)NC(=O)[C@H](CCCNC(=N)N)NC(=O)[C@@H](NC(=O)[C@H](CO)NC(=O)CNC(=O)[C@H](C)NC(=O)CNC(=O)[C@H](CCCNC(=N)N)NC(C)=O)[C@@H](C)CC)C(N)=O` [peptide of formula (II), CH3CO-[SEQ ID NO: 1]-K-[palmitoyl]-NH2] (Ac-RGAGSIREAGGAFGKREQAEEERYFRAQSREK(Palmitoyl)-NH2), the Kd (in general, the concentration at which binding is half-saturated) in series [1] amounted to 4.45 nM. In addition, the “stability in PBS” value in series [2] is reported as “stable”.
The corresponding values for “Ac-RGAGSIREAGGAFGKREQAEEERYFRAQSRE-NH2 [peptide of formula (I), CH3CO-[SEQ ID NO: 1]-NH2]” are 19 nM and “stable”.
